In PubChem BioAssay (NCI):
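Compound exposure: 48 hours, 5 concentrations, 96-well plates. GI50 is the concentration that inhibits growth by half. TGI: total growth inhibition.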

Experiments:
Assay in all cases: inhibition of tumour cell growth, NCI panel, 48 h
UO-31 renal = tested on: UO-31 renal
SF-539 CNS = tested on: SF-539 CNS
RPMI-8226 leukemia = tested on: RPMI-8226 leukemia
A549 NSCLC = tested on: A549 NSCLC
NCI-H23 lung = tested on: NCI-H23 lung
HOP-92 NSCLC = tested on: HOP-92 NSCLC
A498 renal = tested on: A498 renal
SW-620 colon = tested on: SW-620 colon
HT29 colon = tested on: HT29 colon
SK-MEL-2 melanoma = tested on: SK-MEL-2 melanoma

SMILES	TGI (UO-31 renal) [µM]	TGI (SF-539 CNS) [µM]	TGI (RPMI-8226 leukemia) [µM]	TGI (A549 NSCLC) [µM]	TGI (NCI-H23 lung) [µM]	TGI (HOP-92 NSCLC) [µM]	TGI (A498 renal) [µM]	TGI (SW-620 colon) [µM]	TGI (HT29 colon) [µM]	TGI (SK-MEL-2 melanoma) [µM]	GI50 (UO-31 renal) [µM]	GI50 (SF-539 CNS) [µM]	GI50 (RPMI-8226 leukemia) [µM]	GI50 (A549 NSCLC) [µM]	GI50 (NCI-H23 lung) [µM]	GI50 (HOP-92 NSCLC) [µM]	GI50 (A498 renal) [µM]	GI50 (SW-620 colon) [µM]	GI50 (HT29 colon) [µM]	GI50 (SK-MEL-2 melanoma) [µM]
CC(C)CCC1(CCN)C(=O)NC(=O)NC1=O	> 100	> 100	> 100	> 100	> 100	> 100	> 100	> 100	> 100	> 100										
Cc1cc(N(CCC#N)CCC#N)ccc1/C=C(\NC(=O)/C=C/c1ccccc1)C(=O)NN	> 100	> 100	> 100	> 100	> 100	63.7	> 100	> 100	> 100	> 100										
COc1ccc2c(c1)/C(=C/c1cc(OC)c(OC)c(OC)c1)C(=O)N2	> 100	19.5	1.18	> 100	> 63.2	> 33.9	0.848	> 100	21.1		2.74	0.74	0.275	0.603	0.613	1.43	0.146	0.175	0.116	1.18
O=C(O)c1ccccc1/C=N/N=C1c2ccccc2-c2ccccc21	> 100	> 100	48.2	> 100	> 100	> 100	> 100	> 100	> 100	> 100										
C=CC(OCC)(OCC)OCC	> 100	> 100	> 100	> 100	> 100	> 100	> 100		> 100	> 100										
C=C1C[C@@H]2CC[C@@]34C[C@H]5O[C@H]6[C@@H](O3)[C@H]3O[C@H](CC[C@@H]3O[C@H]6[C@@H]5O4)CC(=O)C[C@@H]3[C@@H](OC)[C@@H](C[C@H](O)CN)O[C@H]3C[C@H]3O[C@@H](CC[C@@H]1O2)C[C@@H](C)C3=C	> 100	0.0166		> 100	> 100	79.4	0.0456	> 100	> 100	> 100	1.34	< 0.01	< 0.01	< 0.01	< 0.01	0.0734	< 0.0119	< 0.01	< 0.01	< 0.01
O=c1c(F)cn(Cc2ccccc2CCl)c(=O)n1Cc1ccccc1CCl	5.3	4.73	8.46	4.29	7.05	6.85	5.97	3.73	4.71	3.05	1.99	2.06	0.795	1.83	2.42	2.35	1.58	1.45	2.01	1.54
O=[N+]([O-])c1ccc(-c2ccc(-c3csc(Nc4ccccc4)n3)o2)cc1	39	33.9	> 67.4	> 100	36.8	37	34.5	56.7	49.7	36.4										
CC(NC(=O)N(C)C)NC(=O)N(C)C	> 10	> 10	> 10	> 10	> 10	> 10	> 10	> 10	> 10	> 10										
CC(=O)N1CCC2(c3ccccc3N(C(C)=O)C2c2ccc(O)cc2)C1C(=O)O (stereo not given)	> 100	> 100	> 100	> 100	> 100	> 100	> 100	> 100	> 100	> 100										
COc1ccc(C(=O)NCCN(C)C)c2nc3ccccc3nc12	> 52	17.6	> 100	> 100	17.9	> 27.4	16.3	> 30.5	15.1	11.8										
CCOC(=O)C1SC(=Nc2ccc(Cl)cc2)N=C1C (stereo not given)	33.7	33	82.3	38.1	34.9	29.6	41.3	35.2	30.8	38.5										
O=[N+]([O-])c1ccc(Sc2c3ccccc3nc3cc(Cl)ccc23)cc1	> 100		> 100	> 100	> 100	> 100	> 100	> 100	> 100	> 100	> 100			> 100	> 100		> 100	> 100		> 100
CCNC(=O)c1noc(-c2cc(C(C)C)c(O)cc2O)c1-c1ccc(CN2CCOCC2)cc1	> 100	26.3	23.1	22.7	27.2	0.0738	17.5	23.9	2.09	8.74	0.0457	0.0662	0.0428	0.0221	0.0535	0.0252	0.0418	< 0.01	0.0343	0.0311
CC(=O)O[C@H]1CCc2c(cc(N)c3c2C(=O)C[C@]2(C)C([C@H](C)CCCC(C)C)CCC32C)C1(C)C (stereo not given in full)	> 100	> 100	> 100	> 100	> 100	> 100	> 100	> 100	> 100	> 100										
CN(C)C(=O)O[C@H]1CN[C@H](C#Cc2cc3ncnc(Nc4ccc(OCc5cccc(F)c5)c(Cl)c4)c3s2)C1	> 23.9	> 25	15.2	> 25	> 25	19.4	23.3	> 25	> 25	> 25	4.04	8.16	4.63	6.12	> 25	1.77	4.19	> 25	> 23	> 25
COc1cc2c(cc1OC)C(C(=O)c1cccc(OC)c1OC)C(=O)N(C)CC2 (stereo not given)	> 100		> 100	> 100	> 100	> 100	> 100	> 100	> 100	> 100										
CCN(C(=O)/C=C/c1ccco1)c1ccccc1	> 100		> 100	> 100	> 100	> 100	> 100	> 100	> 100	> 100										
